Experimental data published in patent US20260125426A1, “CYCLIC CELL-PENETRATING PEPTIDES AND USES THEREOF” (Ohio State Innovation Foundation, priority 2022, published 2026).
Where “and” joins values, the source holds several entries; their conditions need not be identical. Equal values may be shown once.

How the values were obtained:
[1] = Proteolytic stability in 25% human serum (UPLC-MS); format: in vitro ADME; settings: 100 μM peptide, 25% human serum in PBS, 37° C.; read-out: Serum t1/2
Method: Proteolytic Stability of BCP4, BCP16, and pBCP427-4. BCPs (100 μM) were incubated in 25% human serum diluted in phosphate-buffered saline for 24 h at 37° C. One hundred-μL aliquots were withdrawn from the mixture at various time points and mixed with 200 μL of 1:1 (v/v) 15% trichloroacetic acid in methanol and acetonitrile. The samples were centrifuged for 5 min in a microcentrifuge and stored at 4° C. until analysis by UPLC-MS equipped with a C-18 column. The column was eluted with a linear gradient of 5-100% acetonitrile in water containing 0.1% TFA over 7.5 min and the eluant was monitored at 214 nm. The area underneath the peak for any remaining BCP was integrated and compared to that at time 0 and the percentage of remaining BCP was plotted as a function of the incubation time. When integration of the UV absorbance was not possible due to overlapping of the peptide signal with that of serum proteins, the signal abundance from the mass spectrum was used to estimate the % peptide remaining.
Proteolytic Stability of pBCP427-4 and pBCP427-4Ala. BCPs (100 μM) were incubated in 25% human serum diluted in phosphate-buffered saline for 24 h at 37° C. […] The column was eluted with a linear gradient of 5-100% acetonitrile in water containing 0.1% TFA over 7.5 min and the eluant was monitored at 214 nm.

HeLa cells [2] = test: Flow cytometry of HeLa cells, cytosolic entry of NF-labeled peptides; format: cell-based; settings: for MFI^NF (Cytosolic Entry): 1% FBS, relative to CPP12 (100%)
Method: Flow cytometry. HeLa cells were cultured in 12-well plates (1.5×10^5 cells/well) overnight. The following day, cells were incubated with 5 μM fluorescently labeled peptide for 2 h in DMEM supplemented with 1% FBS and 1% antibiotic solution. DMSO was used as a negative control. After incubation, cells were detached from plate with 350 μL of 0.25% Trypsin-EDTA solution, diluted with Dulbecco's phosphate buffered saline (DPBS), and pelleted at 300 g for 5 min. Cells were washed twice with DPBS, resuspended in DPBS, and analyzed on a BD FACS LSR II flow cytometer.
To evaluate their cell entry efficiencies, the BCPs and pBCPs were labeled with tetramethylrhodamine (TMR) or naphthofluorescein (NF) on a C-terminal lysine residue (FIGS. 2A, 2B, and 4). […] The labeled peptides were purified again by reversed-phase HPLC and their authenticity was confirmed by high-resolution mass spectrometry.
HeLa cells were treated with 5 μM dye-labeled BCPs (or pBCPs), CPP12, Tat, or DMSO (equal volume) for 2 h at 37° C., washed to remove any peptides in the medium, and analyzed by flow cytometry. The mean fluorescence intensity (MFI) value of TMR (which is pH insensitive) reflects the total amount of CPP inside the HeLa cells (total cellular uptake). On the other hand, NF is a pH sensitive dye, having an apparent pKa of 7.8. NF is unprotonated and fluorescent inside the neutral environment of the cytosol (and nucleus) but is nearly completely protonated and nonfluorescent in the acidic environments of endosomes and lysosomes. Thus, the MFI value of NF provides a convenient estimate of the peptides that have reached the cytosol.
Note that cell entry assays were performed by treating HeLa cell with 2 μM naphthofluorescein (NF)-labeled peptide for 2 h at 37° C. Under this condition, the BCPs enter the cell almost exclusively by endocytosis and endosomal escape. A small fraction of the CPP12^NF-treated cells (˜10%) underwent direct translocation of CPP12^NF; this fraction of highly fluorescent cells was not included in the data analysis. The cellular entry of pBCP427-4 was confirmed by live-cell confocal microscopy (FIG. 6).
BCP16a, BCP16b, and pBCP427-4a were labeled with NF and their cytosolic entry efficiencies were assessed by flow cytometry analysis of HeLa cells after treatment with 2 μM peptide at 37° C. for 2 h. […] CPP12 was previously shown to be highly sensitive to serum proteins (Buyanova, M., et al., (2022). Discovery of a Cyclic Cell-Penetrating Peptide with Improved Endosomal Escape and Cytosolic Delivery Efficiency. Molecular pharmaceuties, 19 (5). 1378-1388).

NIH 3T3 cells = test: Confocal microscopy of NIH 3T3 cells; format: cell-based; settings: 2 μM peptide, 37° C., 2 h
Method: The cytosolic entry efficiencies of CPP12, BCP16a, BCP16b, and pBCP427-4a were also assessed by confocal microscopy of NIH 3T3 cells after treatment with 2 μM peptide at 37° C. for 2 h.

HEK293T cells = test: Cytotoxicity, Promega CellTiter-Glo 2.0 assay, HEK293T; format: cell-based; settings: 72 h, read-out: IC50 (concentration at which 50% of cells are nonviable)
Method: (§1) Cytotoxicity of BCPs. The cytotoxicity of pBCP427-4 and BCP16 was tested 20) against HeLa and HEK293T cell lines by using Promega's Cell-Glo assay. The cells were seeded in a 96-well plate (5000 cells/well) in 100 μL of DMEM supplemented with 10% FBS and 1% penicillin/streptomycin. The following day. 10 μL of peptide of various concentrations was added to the cells. A row of wells was treated with DMSO as a control. After 72 h, all wells were treated with an equal volume (110 μL) of Promega CellTiter-Glo 2.0 assay solution and shaken for 30 min. Luminescent signal was measured on a Tecan Infinite Pro plate reader.

HeLa cells [3] = test: Cytotoxicity, Promega CellTiter-Glo 2.0 assay, HeLa; format: cell-based; settings: 72 h, read-out: IC50 (concentration at which 50% of cells are nonviable)
Method: as §1

HeLa cells [4] = test: Live-cell confocal microscopy of HeLa cells; format: cell-based
Method: Confocal microscopy. HeLa cells (5×10^5 cells/mL in 300 μL volume) were cultured overnight in DMEM (10% FBS, 1% antibiotic solution) in a Grenier Bio-One 35/10 mm glass-bottomed microwell dish with four compartments. The following day, cells were incubated with 5 μM fluorescently labeled peptide for 2 h in phenol-red free DMEM (1% FBS, 1% antibiotic solution) and washed with warm media prior to imaging. Cells were imaged on a Nikon A1R live-cell confocal laser scanning microscope (ECLIPSE Ti-E automated, inverted) equipped with a 100× oil objective (1.45 N.A.) and a heated chamber (37° C.) supplied with 5% CO2. TMR-labeled peptides were imaged by excitation with a λEx of 561 nm. Differential interference contrast (DIC) images were obtained to validate the morphology of cells.
The cellular entry of BCP1-3 was further confirmed by live-cell confocal microscopy. HeLa cells were incubated with 5 μM TMR-labeled peptide for 2 h in the presence of 1% FBS in media. The cells were washed twice with fresh media and imaged without fixation.
To assess cellular delivery by confocal microscopy, HeLa cells were cultured overnight in a 4-well, 35-mm glass bottom microscope dish at a density of 50,000 cells/mL (300 μL per well). The following day, the cells were washed twice with DPBS and incubated with 5 μM protein for 4 h in phenol red free DMEM with 1% FBS. […]

[5] = tested on: intracellular Keap1-Nrf2 interaction; test: ARE reporter-HepG2 luciferase assay of CPP/BCP-K1 conjugates; format: cell-based; settings: ARE-Reporter HepG2 cells, 10 μM peptide, 18 h
Method: Cytosolic Delivery of Peptidyl Cargo. […] An important role of Nrf2-ARE pathway in the cellular defense mechanism. Journal of biochemistry and molecular biology, 37(2), 139-1438). Under basal conditions, Nrf2 interacts with Keap1 and is retained in the cytosol or degraded by the proteasome. However, upon blocking the Keap1-Nrf2 interaction, Nrf2 accumulates and translocates into the nucleus, inducing the expression of luciferase.
One hundred μL of ARE-Reporter Hep G2 cells were seeded in a 96-well plate at 5000 cells/well in minimum essential media supplemented with 10% FBS and 1% penicillin/streptomycin. The following day, 10 μL of peptide of various concentrations was added to the cells to give final concentrations of 0.625-10 μM. Cells treated with DMSO were used as a control. After 18 h, the cells were treated with an equal volume (110 μL) of BPS bioscience ONE-Step luciferase assay solution and shaken for 30 min. The luminescent signal was measured on a Tecan Infinite Pro plate reader.

Keap1 = Keap1 (Homo sapiens, UniProt Q14145); settings: read-out: KD for Keap1; cited from earlier work
[6] = 2 μM NF-labeled peptide, 2 h, 37° C.

Chain of Keap1 (Q14145 whole entry, species assumed): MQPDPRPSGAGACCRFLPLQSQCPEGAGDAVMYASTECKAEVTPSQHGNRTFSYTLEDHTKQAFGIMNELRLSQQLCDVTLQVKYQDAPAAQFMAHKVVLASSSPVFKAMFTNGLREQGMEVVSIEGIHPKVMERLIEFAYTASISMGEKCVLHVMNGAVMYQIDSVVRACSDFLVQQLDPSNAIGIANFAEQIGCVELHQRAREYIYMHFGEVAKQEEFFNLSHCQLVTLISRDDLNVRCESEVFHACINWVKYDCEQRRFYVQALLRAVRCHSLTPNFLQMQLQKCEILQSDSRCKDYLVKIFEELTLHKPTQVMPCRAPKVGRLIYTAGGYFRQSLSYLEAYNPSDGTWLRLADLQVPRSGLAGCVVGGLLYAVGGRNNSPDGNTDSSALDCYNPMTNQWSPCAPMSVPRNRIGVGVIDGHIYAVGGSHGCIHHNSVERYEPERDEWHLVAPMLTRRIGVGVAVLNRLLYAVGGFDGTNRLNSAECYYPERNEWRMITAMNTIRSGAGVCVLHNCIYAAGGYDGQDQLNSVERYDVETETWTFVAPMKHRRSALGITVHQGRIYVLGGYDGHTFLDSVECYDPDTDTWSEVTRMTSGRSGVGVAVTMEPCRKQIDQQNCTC

With `CC(=O)N[C@@H](Cc1ccc(O)cc1)C(=O)NCC(=O)N[C@@H](CCCNC(=N)N)C(=O)N[C@@H](CCCCN)C(=O)N[C@@H](CCCCN)C(=O)N[C@@H](CCCNC(=N)N)C(=O)N[C@@H](CCCNC(=N)N)C(=O)N[C@@H](CCC(N)=O)C(=O)N[C@@H](CCCNC(=N)N)C(=O)N[C@@H](CCCNC(=N)N)C(=O)N[C@@H](CCCNC(=N)N)C(=O)NCCOCCOCC(=O)N[C@@H](CCCCNC(=O)c1ccc2c(c1)C(=O)OC21c2ccc3cc(O)ccc3c2Oc2c1ccc1cc(O)ccc21)C(N)=O` [Tat] the half-life at 100 μM [1] was less than 30 min.
With Ac-cwsnwfcfqrrc [pBCP427-4a] the “MFI^NF (Cytosolic Entry)” value (HeLa cells [2]; [6]) was 33% and 33 ± 1%, the “cytosolic entry efficiency in the presence of 10% FBS” value (HeLa cells [2]; 2 μM NF-labeled peptide, 2 h, 37° C., 10% FBS, relative to CPP12) was 85% and the “cytosolic entry by fluorescence intensity, compared with CPP12” value (NIH 3T3 cells) was “less active than CPP12”.
With CWSNWFCFQRRC [pBCP427-4] the “MFI^NF (Cytosolic Entry)” value (HeLa cells [2]; [6]) was 189% and 189 ± 6%, the “improvement of cytosolic entry efficiency by bismuth cyclization” value (HeLa cells [2]; 2 μM, pBCP427-4 vs pBCP427-4Ala) was roughly 10 fold and the IC50 (HEK293T cells) was 16 µM. The IC50 (HeLa cells [3]) was greater than 50 µM and the “cellular entry seen by live-cell confocal microscopy” value (HeLa cells [4]; 2 or 5 μM TMR-labeled peptide, 2 h, 37° C.) was “confirmed”.
Compound HS-CH2-CO-rRrRCΦ(Bta)φC [BCP16] has an IC50 (HEK293T cells) of 14 µM and an IC50 (HeLa cells [3]) of 49 µM.
For cyclo(GQLDPETGEFL [K1], the “induction of luminescence signal” value [5] is given as “did not” and the Kd (Keap1) is given as 0.018 µM.
With “pBCP427-4-SEP: fusion protein of pBCP427-4 at the N-terminus of superecliptic-pHluorin (SEQ ID NO: 89) (MGSSGSSCWSNWFCFQRRC)” the “GFP fluorescence inside the cell (protein delivery)” value (HeLa cells [4]; 5 μM protein, 4 h, 1% FBS) was “intense GFP fluorescence inside the cell”.
